This is an account of results in patent US6492137B1, “Response element compositions and assays employing same” (The Salk Institute for Biological Studies, priority 1989, dated 2002).

The data set has as its target T1, RARα (Homo sapiens, UniProt P10276).
T1 sequence (P10276 1-462): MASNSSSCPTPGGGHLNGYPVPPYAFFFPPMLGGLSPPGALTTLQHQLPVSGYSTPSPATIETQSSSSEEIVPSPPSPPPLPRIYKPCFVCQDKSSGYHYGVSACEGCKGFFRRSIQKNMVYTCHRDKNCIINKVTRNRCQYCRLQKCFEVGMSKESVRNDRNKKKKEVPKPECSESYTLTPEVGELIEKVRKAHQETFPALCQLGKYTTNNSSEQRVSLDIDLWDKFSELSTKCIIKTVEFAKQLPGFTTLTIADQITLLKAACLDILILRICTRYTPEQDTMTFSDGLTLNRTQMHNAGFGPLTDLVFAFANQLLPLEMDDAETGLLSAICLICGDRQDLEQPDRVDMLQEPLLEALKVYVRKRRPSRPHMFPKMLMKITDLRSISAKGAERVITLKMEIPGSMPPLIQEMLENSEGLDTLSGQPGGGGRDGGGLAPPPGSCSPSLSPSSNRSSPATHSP
Nature of the data set: ΔSV-CAT reporter cotransfection assay in CV-1 cells with RARα expression plasmid, ±RA. In kind it is cell-based. The arrangement: expressed in transfected cells; host or cells: CV-1 (monkey kidney). Conditions: RA 1 μM. From the text: Receptor expression plasmids used in the following cotransfection assays have been described previously (pRShTRβ [see Thompson, et al., Proc. Natl. Acad. Sci. U.S.A. 86: 3494-3498 (1989)]; pRShRARα [see Giguere, et al., Nature 330: 624-629 (1987)]; pRShRARβ and pRshRARγ [see Ishikawa, et al., Mol. Endocrinol, 4: 837-844 (1990)]; and pRShVDR, [Schule, et al., Cell 61: 497-504 (1990)]. A basal reporter plasmid ΔSV-CAT was constructed by replacing the TK promoter in TK-CAT [Damm, et al., Nature 339: 593-597 (1989)] with the SphI-HindIII fragment of the SV40 early promoter. All of the recombinant CAT reporter plasmids used herein harbor a single copy of the indicated oligonucleotides at the unique HindIII site upstream of the SV40 promoter. Identity of the inserted oligonucleotides was confirmed by sequencing. To improve production of receptor proteins in COS cells, a new eukaryotic expression vector pCMX was prepared by modifying the plasmid CDM8 [Seed, B., Nature 329: 840-842 (1987)]. The CDM8 was cut with MluI and StuI in order to release the DNA fragment encoding the CMV/T7 promoter, SV40 small t intron/poly A signal, polyoma virus enhancer/origin, and SV40 enhancer/origin. The resulting fragment was ligated to a larger fragment of PvuII-digested PUC19. An internal deletion was introduced between unique BamHI and BclI sites present in the DCM8 portion. The stuffer sequence flanked by XbaI sites was replaced with a synthetic polylinker coding for 5′-KpnI/Asp718-EcoRV-BamHI -MscI-NheI-3′, followed by a stretch of 5′-[…]-3′ (SEQ ID NO:48) which can function as a universal termination signal for protein translation. The coding sequence of the luciferase [de Wet, et al., Mol. Cell. Biol. 7: 725-737 (1987)] and human TRβ, RARα, and VDR was placed in the polylinker region of the pCMX, generating pCMX-LUC, Pcmx-Htrβ, pCMX-hRARα, and pCMX-hVDR, respectively. The translation start site of the RARα was modified to […] by attaching the synthetic linker encoding a consensus translation start signal [Hollenberg, et al., Cell 55: 899-906 (1988)]. […]

In the case of “MHC-N: 23-nucleotide core of the wild-type sequence (MHC-TRE) (SEQ ID NO:14) (AGCTGGAGGTGACAGGAGGACAGCAAGCT; DNA, backbone not given here; further chemistry not fully specified)”, the “RA response (in words)” value is on record as “not RA response”.
